The subject of this assay is Human chondrocytes. The assay is described as follows: Telomere length in chondrocytes, relative quantification for the telomeric repeat (T/S-ratio). The class given is cell-based. The settings on record: LFA transfection, n=3, P65i high.

As for “RelA/NFkB p65 [pSer529, pSer536] inhibitor peptide [P65i]”, the “% increase in TL” value is 4.0% and the T/S-ratio came to 1.01.

Source of the values: patent US20180360924A1, “TELOMERE EXTENSION AND ANTI-INFLAMMATORY AGENTS FOR CELL REGENERATION” (THE METHODIST HOSPITAL SYSTEM, priority 2015, published 2018).
